Data published in patent publication US20180311236A1 (AB SCIENCE, priority 2015, published 2018).

What was measured:
C57BL/6 mice = assay: Mortality after MPTP intoxication; assay type: in vivo, mouse; details: 24 hours after treatment by the MPTP (4 injections of 20 mg/kg at 2-hour intervals)
Description: Brain samples were collected after mice anesthesia and sacrifice.

[1] = test system: Tyrosine Hydroxylase in total brain protein extract; assay: MPTP mouse model of Parkinson's disease: tyrosine hydroxylase western blotting; details: MPTP alone (4 × 20 mg/kg, solvent-treated), control = 100
Description: Each treated group included 10 animals for the MPTP intoxicated groups and 5 animals for the controls.
(§1) C57BL/6J mice are intoxicated with MPTP using an acute protocol, as described hereafter. On the day of MPTP exposure each mouse received 4 injections of MPTP solution (20 mg/kg) at 2-hour intervals for 1 day.
Before brain extraction mice were perfused with 0.9% NaCl 2.6 mM EDTA solution.
And the right brain was immediately frozen in nitrogen liquid for protein analysis. The proteins were extracted with the homogenizer ultra turrax IKA-T10 basic system and quantified using the BCA test (bicinchoninic acid assay).
30 μg of total brain protein were used for western blot analysis using 1:1000 dilution anti-tyrosine hydroxylase rabbit polyclonal antibody (Cat #AB152, Millipore) followed by 1:10000 horseradish peroxidase-conjugated anti-rabbit antibody (Jakson ImmunoResearch). Antibody to actin (Cat #A5316, Sigma Aldrich) were used as loading control followed by 1:10000 horseradish peroxidase-conjugated anti-mouse antibody (Jakson ImmunoResearch). Immunoreactive bands were detected using enhanced chemiluminescent reagents (GE Healthcare, Amersham, UK). Signal intensity was calculated using the Image J software.

[2] = test system: human cord blood mast cells; details: cited from earlier work
[3] = test system: tyrosine hydroxylase in coronal brain sections; assay: MPTP mouse model of Parkinson's disease: tyrosine hydroxylase immunohistochemistry; assay type: in vivo; details: immunohistochemistry on 5 μm-thick coronal sections; MPTP + masitinib 2 × 5 mg/kg
[4] = test system: Ba/F3 cells expressing PDGFR-α; details: read-out: IC50, PDGF-BB-stimulated proliferation and PDGFR-α tyrosine phosphorylation; cited from earlier work
[5] = test system: Monoamine oxidase activity from total brain protein extract; assay: MPTP mouse model: monoamine oxidase fluorometric assay; details: MPTP + masitinib 2 × 5 mg/kg, control = 100, MPTP = 108
Description: (§2) Each treated group included 10 animals for the MPTP intoxicated groups and 5 animals for the controls. The loss of tyrosine hydroxylase expression, indicative of dopaminergic neuron destruction, was analyzed by western blotting, immunohistochemistry and ELISA assay.
This stock solution was defrosted before treatment of mice. The mice were treated orally by gavage with 0.1 ml corresponding to 25 mg/kg in a 24 g mouse.
as §1
(§3) Dosing was done 2 times per day at 6-hour interval starting day 7 before intoxication and stopping 7 days after MPTP administration. […] Before brain extraction mice were perfused with 0.9% NaCl 2.6 mM EDTA solution.
(§4) The treatment started 7 days before MPTP administration and continued 7 days after.
(§5) After mouse sacrifice and dissection, the left brain was submerged in 4% paraformaldehyde in PBS (phosphate buffered saline) solution for paraffin embedding and then cut into 5 μM-thick coronal section. And the right brain was immediately frozen in nitrogen liquid for protein analysis. The proteins were extracted with the homogenizer ultra turrax IKA-T10 basic system and quantified using the BCA test (bicinchoninic acid assay).

[6] = test system: Tyrosine Hydroxylase in total brain protein extract; assay: MPTP mouse model of Parkinson's disease: tyrosine hydroxylase ELISA assay
Description: as §2
The mice were treated orally by gavage with 0.1 ml corresponding to 25 mg/kg in a 24 g mouse.
as §1, §3, §4, §5
The microliter plate wells were coated overnight at 4° C. with 5μg of total brain protein extract. […]

Row | SMILES | mortality (C57BL/6 mice) | Relative average expression of tyrosine hydroxylase [1] | FcϵRI-mediated degranulation [2] | in situ staining of tyrosine hydroxylase [3] | IC50 [4] [nM] | Monoamine oxidase fluorometric assay [5] | Mean expression of tyrosine hydroxylase ([6]; MPTP + masitinib 2 × 5 mg/kg per os, day -7 to day 7, control = 0.275, MPTP = 0.175, 5 mg/kg) | Mean expression of tyrosine hydroxylase ([6]; masitinib alone 2 × 30 mg/kg per os, no MPTP, control = 0.275, 30 mg/kg)
1 | CN1CC=C(c2ccccc2)CC1 [MPTP, 1-methyl-4-phenyl-1,2,3,6-tetrahydropyridine] | No mortality | 77 |  |  |  |  |  | 
2 | Cc1ccc(NC(=O)c2ccc(CN3CCN(C)CC3)cc2)cc1Nc1nc(-c2cccnc2)cs1 [Masitinib, 4-(4-methylpiperazin-l-ylmethyl)-N-[4-methyl-3-(4-pyridin-3ylthiazol-2-ylamino)phenyl]benzamide] |  |  | inhibition | positive effect | 300 ± 5 | maintained | significant attenuation | did not modify significantly
